Values of other authors as cited in patent US20070184105A1, “COMSPOSITION FOR STABLIZING EPIGALLOCATECHIN GALLATE (EGCG) IN WATER PHASE AND PREPARATION METHOD THEREOF” (DPI SOLUTIONS, INC., priority 2004, published 2007).

amount of EGCG that can be dissolved in water phase: about 4%
Structure (SMILES): O=C(O[C@@H]1Cc2c(O)cc(O)cc2O[C@@H]1c1cc(O)c(O)c(O)c1)c1cc(O)c(O)c(O)c1 [EGCG, epigallocatechin gallate]
